Source: ChEMBL document CHEMBL1275444, “Fitness trade-offs in blaTEM evolution” (2008)
Activity calls are given as the source filed them. The calls are words filed in the database; no cut-off is given here.

Legend:
Escherichia coli [1] = assay: Antibacterial activity against Escherichia coli TP1 harboring pBR322 carrying TEM-10 assessed as inhibition of bacterial growth at >64 ug/ml after 18 hrs; assay type: functional, organism-based
Escherichia coli [2] = assay: Antibacterial activity against Escherichia coli TP1 harboring pBR322 carrying TEM-12 assessed as inhibition of bacterial growth at <=16 ug/ml after 18 hrs; assay type: functional, organism-based
Escherichia coli [3] = test system: Escherichia coli
Description: Ratio of Kcat to Km for Escherichia coli Beta-Lactamase TEM-12

CC(C)(O/N=C(\C(=O)N[C@@H]1C(=O)N2C(C(=O)[O-])=C(C[n+]3ccccc3)CS[C@H]12)c1csc(N)n1)C(=O)O
inhibition (Escherichia coli [1]): Active | inhibition (Escherichia coli [2]): inactive

CC1(C)S[C@@H]2[C@H](NC(=O)[C@H](N)c3ccccc3)C(=O)N2[C@H]1C(=O)O
kcat/Km (Escherichia coli [3]): 4.2 ×10⁷ /M/s
